Columns and labels:
[1] = biological target: T1, LTD4 receptor (Cavia porcellus, UniProt Q2NNR5); assay: LTD4 antagonistic effects: LTD4-induced constriction of isolated guinea pig ileum preparations; assay type: cell-based; conditions: LTD4 0.05-3.5 ng/ml cumulative, 5 min pre-treatment, Van Rossum's method
T1 construct: the ilea were excised and made into ileum preparations; from tissue; host or cells: guinea pig ileum
T1 sequence (Q2NNR5 1-340): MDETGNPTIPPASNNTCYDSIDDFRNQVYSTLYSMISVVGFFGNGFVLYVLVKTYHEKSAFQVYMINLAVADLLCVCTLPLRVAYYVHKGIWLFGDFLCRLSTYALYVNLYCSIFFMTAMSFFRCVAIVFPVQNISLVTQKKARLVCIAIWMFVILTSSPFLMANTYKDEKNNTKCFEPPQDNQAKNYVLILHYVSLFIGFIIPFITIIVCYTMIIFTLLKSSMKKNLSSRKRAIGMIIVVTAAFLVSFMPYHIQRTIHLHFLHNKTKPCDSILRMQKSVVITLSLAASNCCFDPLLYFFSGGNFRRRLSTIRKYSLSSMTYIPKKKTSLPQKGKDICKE
Experimental: (§1) Guinea pigs were bled to death, and the ilea were excised and made into ileum preparations. The ileum preparations were suspended with a 1 g load in Magnus tubes filled with 2 ml Tyrode solution maintained at 37° C. under aeration with a 95% O2-5% CO2 gas mixture, and LTD4-induced constrictions were isotonically recorded.
(§2) After equilibration of the tonuses of the ilea, constrictive responses to cumulative addition of 0.05-3.5 ng/ml LTD4 were observed. After the constrictive responses reached equilibrium, LTD4 was added again cumulatively 5 minutes after pre-treatment with a test substance to induce constriction. The pA2 values were calculated in accordance with Van Rossum's method.

[2] = biological target: T2, TXA2 receptor (Cavia porcellus, UniProt A0A286Y4I8); assay: TXA2 antagonistic effects: U-46619-induced constriction of isolated guinea pig tracheal muscle strips; assay type: cell-based; conditions: U-46619 cumulative, 5 min pre-treatment, Van Rossum's method
T2 construct: the tracheae were excised and made into tracheal muscle strips; from tissue; host or cells: guinea pig tracheal muscle strips
T2 sequence (A0A286Y4I8 1-347): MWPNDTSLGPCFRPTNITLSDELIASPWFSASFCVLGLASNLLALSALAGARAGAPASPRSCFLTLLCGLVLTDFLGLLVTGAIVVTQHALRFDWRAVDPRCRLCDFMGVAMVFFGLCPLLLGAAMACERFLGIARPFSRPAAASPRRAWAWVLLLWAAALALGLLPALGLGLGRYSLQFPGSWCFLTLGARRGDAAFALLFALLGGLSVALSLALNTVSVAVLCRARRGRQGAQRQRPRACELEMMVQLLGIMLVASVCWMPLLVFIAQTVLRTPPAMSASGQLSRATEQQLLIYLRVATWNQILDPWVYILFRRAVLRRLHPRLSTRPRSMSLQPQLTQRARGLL
Experimental: as §1, with “tracheae” for “ilea”, “tracheal muscle strips in accordance with Takagi et al.” for “ileum preparations.”, “strips” for “ileum preparations”, “U-46619-induced” for “LTD4-induced”
as §2, with “strips,” for “ilea,”, “10^−10−[…] U-46619” for “0.05-3.5 ng/ml LTD4”, “U-46619” for “LTD4”, “cumlatively” for “cumulatively”

[3] = tested on: passively sensitized guinea pigs; assay: Antiasthmatic effects: immediate asthmatic response of passively sensitized guinea pigs (airway resistance); assay type: in vivo, guinea pig; conditions: 3 mg/kg i.v. 5 min before antigen inhalation (1% ovalbumin); airway resistance 5 min after inhalation
Experimental: The antiasthmatic effects were evaluated by the immediate asthmatic responses of passively sensitized guinea pigs. The previous day, the guinea pigs were sensitized by intravenous injections of a 10-fold diluted anti-DNP-ovalbumin guinea pig serum (guinea pig PCA titer; X1024) on the ears. The day of the test, after pre-treatment with pyrilamine (10 mg/kg i.p.), normal airway resitances were measured with a double flow plethysmograph in accordance with Pennock et al. The test substances (3 mg/kg) in DMSO were dissolved in 50% normal guinea pig serum-saline and intravenously injected from the ear vein 5 minutes before inhalation of the antigen. Immediate asthmatic responses were induced by 3 minutes of inhalational exposure to 1% ovalbumin in saline as the antigen from an ultrasonic neblizer, and the airway resistances were measured 5 minutes (4 to 6 minutes) after the inhalation. The results are expressed by the inhibition rates given by the following expression:
Inhibition rate (%)=(1−(A−B)/(C−D))×100
A: the airway resistance with a test substance after inhalation of the antigen,
B: the airway resistance with a test substance before inhalation of the antigen,
C: the airway resistance with a control after inhalation of the antigen,
D: the airway resistance with a control before inhalation of the antigen.

[4] = tested on: ICR mice; assay: Acute toxicity test in ICR mice; assay type: in vivo, mouse

CC(C)c1csc(COc2cccc(CN(CCCCNS(=O)(=O)c3ccc(Cl)cc3)S(=O)(=O)c3ccccc3C(=O)O)c2)n1 [compound 1, 2-{N-[4-(4-chlorobenzenesulfonylamino)butyl]-N-{3-[(4-isopropyl-2-thiazolyl)methoxy]benzyl}}sulfamoylbenzoic acid]
LTD4 inhibitory effect (pA2) [1]: 9.73 | TXA2 inhibitory effect (pA2) [2]: 8.30 | Antiasthmatic effect Inhibition rate (%) [3]: 53.5% | Acute toxicity (mortality), intravenous ([4]; intravenously 100 mg/kg): none of the mice died | Acute toxicity (mortality), oral ([4]; orally 1000 mg/kg): none of the mice died

CC(C)c1csc(COc2cccc(CN(CCCCNS(=O)(=O)c3ccc(Cl)cc3)S(=O)(=O)c3ccccc3-c3nnn[nH]3)c2)n1 [compound 91, 5-{2-{N-[4-(4-chlorobenzenesulfonylamino)butyl]-N-{3-[(4-isopropyl-2-thiazolyl)methoxy]benzyl}}sulfamoylphenyl}-1H-tetrazole]
Kb ([1]; read-out: LTD4 inhibitory effect (pA2) (converted)): 0.891 nM | Kb ([2]; read-out: TXA2 inhibitory effect (pA2) (converted)): 18.6 nM

— patent publication US6376671B1, “2-sulfamoylbenzoic acid derivatives” (Kaken Pharmaceutical Co., Ltd., priority 1997, dated 2002)
